Source: PubChem BioAssay (NCI)
Several values for one entry are separate records, joined by “and”; a condition that tells them apart may be missing. Equal entries are not always repeated.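 Where inhibition never reached the appropriate level, the endpoint shown equals the highest concentration tested. Otherwise, values were interpolated linearly from a five-concentration, 48-hour dose response in 96-well plates. Abbreviation: GI50, concentration required for 50% inhibition of growth. TGI denotes the concentration required for complete inhibition of growth.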

Key:
Assay in all cases: inhibition of tumour cell growth, NCI panel, 48 h
[1] = tested on: SF-295 CNS
[2] = tested on: A549 NSCLC
[3] = tested on: HT29 colon
[4] = tested on: SF-268 CNS
[5] = tested on: SF-539 CNS
[6] = tested on: HOP-92 NSCLC
[7] = tested on: KM20L2 colon
[8] = tested on: NCI-H23 lung
[9] = tested on: OVCAR-4 ovarian
[10] = tested on: RPMI-8226 leukemia
[11] = tested on: MDA-MB-435
[12] = tested on: A498 renal
[13] = tested on: M14 melanoma
[14] = tested on: DMS 114 small cell lung
[15] = tested on: UACC-257 melanoma
[16] = tested on: SK-OV-3 ovarian
[17] = tested on: LXFL 529 NSCLC
[18] = tested on: CAKI-1 renal
[19] = tested on: UO-31 renal
[20] = tested on: DMS 273 small cell lung
[21] = tested on: SW-620 colon
[22] = tested on: OVCAR-5 ovarian
[23] = tested on: SN12C renal
[24] = tested on: HOP-62 NSCLC
[25] = tested on: MOLT-4 leukemia
[26] = tested on: HCC-2998 colon
[27] = tested on: MDA-N
[28] = tested on: EKVX NSCLC
[29] = tested on: HS 578T breast
[30] = tested on: SK-MEL-2 melanoma
[31] = tested on: K-562 leukemia
[32] = tested on: SNB-75 CNS
[33] = tested on: CCRF-CEM leukemia
[34] = tested on: HOP-18 NSCLC
[35] = tested on: U251 CNS
[36] = tested on: TK-10 renal
[37] = tested on: KM12 colon
[38] = tested on: MALME-3M melanoma
[39] = tested on: HCT-116 colon
[40] = tested on: SK-MEL-28 melanoma
[41] = tested on: ACHN renal
[42] = tested on: COLO 205 colon
[43] = tested on: MCF7 breast
[44] = tested on: HL-60(TB) leukemia
[45] = tested on: NCI-H460 lung
[46] = tested on: 786-0 renal
[47] = tested on: SNB-19 CNS
[48] = tested on: BT-549 breast
[49] = tested on: DU-145 prostate
[50] = tested on: DLD-1 colon
[51] = tested on: NCI-H226 lung
[52] = tested on: LOX IMVI melanoma
[53] = tested on: SR leukemia
[54] = tested on: XF 498 CNS
[55] = tested on: PC-3 prostate
[56] = tested on: MDA-MB-231 breast
[57] = tested on: OVCAR-3 ovarian
[58] = tested on: OVCAR-8 ovarian
[59] = tested on: M19-MEL melanoma
[60] = tested on: HCT-15 colon
[61] = tested on: NCI-H522 lung
[62] = tested on: SNB-78 CNS
[63] = tested on: UACC-62 melanoma
[64] = tested on: T-47D breast
[65] = tested on: IGROV1 ovarian
[66] = tested on: SK-MEL-5 melanoma
[67] = tested on: RXF 393 renal
[68] = tested on: NCI/ADR-RES ovarian

O=[N+]([O-])c1cccc2nc3ccccc3c(NCCO)c12
GI50 [1]: 0.952 nM | TGI [1]: 13.7 nM | GI50 [2]: 0.154 nM | TGI [2]: 1.46 nM | GI50 [3]: 1.82 nM | TGI [3]: 6.86 nM and 3.46 nM | GI50 [4]: 0.25 nM | TGI [4]: 3.77 nM and 10.7 nM | GI50 [5]: 0.647 nM | TGI [5]: 2.14 nM | GI50 [6]: 1.22 nM | TGI [6]: 4.61 nM and 5.48 nM | TGI [7]: 3.57 nM | GI50 [8]: 0.464 nM | TGI [8]: 5.23 nM and 1.92 nM | TGI [9]: 2.93 nM and 26.7 nM | GI50 [10]: 0.0396 nM | GI50 [11]: 0.0714 nM | GI50 [12]: 9.34 nM | TGI [12]: 36.7 nM | TGI [13]: 0.799 nM | TGI [14]: 14.2 nM | GI50 [15]: 0.999 nM | TGI [15]: 3.84 nM | GI50 [16]: 4.69 nM | TGI [17]: 15.7 nM | GI50 [18]: 0.484 nM | TGI [18]: 2.93 nM | GI50 [19]: 0.336 nM | TGI [19]: 5.76 nM and 1.73 nM | TGI [20]: 48.1 nM | GI50 [21]: 0.0593 nM | TGI [21]: 1.4 nM | GI50 [22]: 0.703 nM | TGI [22]: 9.29 nM and 3.07 nM | GI50 [23]: 0.299 nM | TGI [23]: 2.32 nM | TGI [24]: 2.05 nM | GI50 [25]: 1.34 nM | TGI [25]: > 100 nM | GI50 [26]: 1.46 nM | TGI [26]: 3.67 nM and 3.38 nM | GI50 [27]: 0.0322 nM | GI50 [28]: 5.47 nM | TGI [28]: 3.73 nM | GI50 [29]: 0.298 nM | TGI [29]: 0.802 nM | GI50 [30]: 0.338 nM | TGI [30]: 0.857 nM | GI50 [31]: 1.26 nM | TGI [32]: 5.01 nM | GI50 [33]: 3.79 nM | TGI [33]: > 100 nM | TGI [34]: > 100 nM | GI50 [35]: 0.4 nM | TGI [35]: 5.18 nM | GI50 [36]: 0.594 nM | TGI [36]: 9.35 nM and 2.74 nM | GI50 [37]: 1.1 nM | TGI [37]: 12.9 nM | GI50 [38]: 0.525 nM | TGI [38]: 1.7 nM | GI50 [39]: 0.0418 nM | TGI [39]: 0.47 nM | GI50 [40]: 0.707 nM | GI50 [41]: 0.189 nM | TGI [41]: 4.05 nM and 2.47 nM | GI50 [42]: 0.181 nM | TGI [42]: 6.4 nM and 0.73 nM | GI50 [43]: 0.113 nM | TGI [43]: 0.471 nM | GI50 [44]: 1.18 nM | TGI [44]: > 100 nM | GI50 [45]: 0.0272 nM | GI50 [46]: 0.265 nM | TGI [46]: 2.1 nM | GI50 [47]: 1.2 nM | TGI [47]: 87.8 nM | GI50 [48]: 0.108 nM | TGI [48]: 0.295 nM | GI50 [49]: 0.0482 nM | TGI [49]: 1.95 nM | TGI [50]: 3.08 nM | GI50 [51]: 3.22 nM | TGI [51]: 9.82 nM and 19.8 nM | TGI [52]: 11.9 nM and 16.9 nM | GI50 [53]: 1.39 nM | TGI [53]: 7.31 nM | TGI [54]: 4.37 nM | GI50 [55]: 0.136 nM | TGI [55]: 0.414 nM | GI50 [56]: 0.118 nM | GI50 [57]: 2.87 nM | TGI [57]: 1.78 nM | GI50 [58]: 1.21 nM | TGI [58]: 19.2 nM | TGI [59]: 8.48 nM | GI50 [60]: 0.293 nM | TGI [60]: 4.25 nM | GI50 [61]: 0.527 nM | TGI [61]: 1.52 nM | TGI [62]: 50.4 nM and 12 nM | GI50 [63]: 0.705 nM | TGI [64]: 4.8 nM | GI50 [65]: 11.8 nM | TGI [65]: 13.9 nM and 72.4 nM | GI50 [66]: 0.279 nM | TGI [66]: 1.12 nM | GI50 [67]: 0.14 nM | TGI [67]: 3.95 nM and 0.815 nM

C[C@]12CC[C@@H]3c4ccc(O)cc4CC[C@H]3[C@@H]1CC[C@@H]2OC(=O)CCC1CCCC1
TGI [1]: 31800 nM | TGI [2]: 32200 nM | TGI [3]: 32000 nM | TGI [4]: 41100 nM | TGI [5]: 40500 nM | TGI [6]: 47700 nM | TGI [7]: 33100 nM | TGI [8]: 34600 nM | TGI [9]: 32000 nM | TGI [10]: 38300 nM | TGI [11]: 21700 nM | TGI [12]: 38800 nM | TGI [13]: 43400 nM | TGI [14]: 85900 nM | TGI [15]: > 57700 nM | TGI [16]: 38300 nM | TGI [17]: 32100 nM | TGI [18]: 33200 nM | TGI [19]: 35300 nM | TGI [20]: 27700 nM | TGI [21]: 38100 nM | TGI [22]: > 57200 nM | TGI [23]: 31200 nM | TGI [24]: 33900 nM | TGI [25]: 35200 nM | TGI [26]: 37800 nM | TGI [27]: 20200 nM | TGI [28]: 21000 nM | TGI [30]: > 56400 nM | TGI [68]: 32900 nM | TGI [31]: 35200 nM | TGI [33]: 38400 nM | TGI [34]: 59600 nM | TGI [35]: 33500 nM | TGI [36]: 48400 nM | TGI [37]: > 56800 nM | TGI [38]: 55300 nM | TGI [39]: 31100 nM | TGI [40]: 34200 nM | TGI [41]: 55500 nM | TGI [42]: 33900 nM | TGI [43]: 31000 nM | TGI [44]: 34800 nM | TGI [45]: 36300 nM | TGI [46]: 29900 nM | TGI [47]: 31300 nM | TGI [48]: 32700 nM | TGI [49]: 26900 nM | TGI [50]: 98600 nM | TGI [51]: 36600 nM | TGI [52]: 35600 nM | TGI [53]: 39300 nM | TGI [54]: 40900 nM | TGI [55]: 31300 nM | TGI [56]: 32200 nM | TGI [57]: 30100 nM | TGI [58]: 31700 nM | TGI [59]: 67900 nM | TGI [60]: 33800 nM | TGI [61]: 32600 nM | TGI [62]: > 100000 nM | TGI [63]: 27500 nM | TGI [64]: 28400 nM | TGI [65]: 33400 nM | TGI [66]: 33400 nM | TGI [67]: 28300 nM
